# Source: article PMC2820250 (Journal of the American Chemical Society, 2009)
# Counter-ions that a name gives are not always drawn.
# Target: recombinant human BACE-1 (Homo sapiens, UniProt P56817)
# Assay: BACE-1 FRET peptide cleavage assay
# Format: biochemical
# Details: for IC50, inhibition of cleavage of FRET peptide by BACE-1: FRET peptide with Swedish variant, pH 4.5, 2 h, 25 °C, triplicate; for inhibitory activity against BACE-1 cleavage of FRET peptide, in words: qualitative statement
# Chain of recombinant human BACE-1 (P56817 46-501): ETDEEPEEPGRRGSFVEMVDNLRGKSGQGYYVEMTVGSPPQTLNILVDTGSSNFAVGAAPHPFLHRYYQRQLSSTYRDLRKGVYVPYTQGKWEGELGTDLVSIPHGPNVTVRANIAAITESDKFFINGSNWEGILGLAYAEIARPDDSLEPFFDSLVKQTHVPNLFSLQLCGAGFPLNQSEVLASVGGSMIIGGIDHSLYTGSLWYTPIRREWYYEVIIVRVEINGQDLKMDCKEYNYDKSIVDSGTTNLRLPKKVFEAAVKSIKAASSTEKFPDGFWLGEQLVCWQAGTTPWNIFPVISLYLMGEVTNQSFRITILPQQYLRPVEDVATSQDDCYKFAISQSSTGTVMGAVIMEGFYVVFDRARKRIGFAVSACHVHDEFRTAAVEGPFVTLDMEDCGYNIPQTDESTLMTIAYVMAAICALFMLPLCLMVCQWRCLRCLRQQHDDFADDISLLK
Compound,"IC50, inhibition of cleavage of FRET peptide by BACE-1 [µg/ml]","inhibitory activity against BACE-1 cleavage of FRET peptide, in words",reduction of potency relative to compound 83 (acetamido moieties instead of N-sulfates) [fold]
CC(=O)N[C@H]1[C@@H](O[C@H]2[C@H](O)[C@@H](O)[C@H](O[C@H]3[C@H](O)[C@@H](NC(C)=O)[C@@H](OCCCCCN)O[C@@H]3COS(=O)(=O)[O-])O[C@@H]2C(=O)[O-])O[C@H](COS(=O)(=O)[O-])[C@@H](O[C@@H]2O[C@@H](C(=O)[O-])[C@@H](O)[C@H](O)[C@H]2O)[C@@H]1O.[Na+].[Na+].[Na+].[Na+] [Compound 80],104,,
"NCCCCCO[C@H]1O[C@H](COS(=O)(=O)[O-])[C@@H](O[C@@H]2O[C@H](C(=O)[O-])[C@@H](O[C@H]3O[C@H](COS(=O)(=O)[O-])[C@@H](O[C@@H]4O[C@@H](C(=O)[O-])[C@@H](O)[C@H](O)[C@H]4O)[C@H](O)[C@H]3NS(=O)(=O)[O-])[C@H](O)[C@H]2O)[C@H](O)[C@H]1NS(=O)(=O)[O-].[Na+].[Na+].[Na+].[Na+].[Na+].[Na+] [Compound 81, 5-aminopentyl [(L-α-idopyranosyluronate)-(1→4)-O-(2-deoxy-2-sulfoamino-6-O-sulfonate-α-D-glucopyranoside)-(1→4)-O-(β-D-glucopyranosyluronate)]-(1→4)-2-deoxy-2-sulfoamino-6-O-sulfonate-α-D-glucopyranoside hexasodium salt]",290,,
CC(=O)N[C@H]1[C@@H](O[C@H]2[C@H](O)[C@@H](O)[C@H](O[C@H]3[C@H](O)[C@@H](NC(C)=O)[C@@H](OCCCCCN)O[C@@H]3COS(=O)(=O)[O-])O[C@@H]2C(=O)[O-])O[C@H](COS(=O)(=O)[O-])[C@@H](O[C@@H]2O[C@H](C(=O)[O-])[C@@H](O)[C@H](O)[C@H]2O)[C@@H]1O.[Na+].[Na+].[Na+].[Na+] [Compound 76],39,modest activity,
5-Aminopentyl [(α-L-idopyranosyluronate)-(1→4)-O-(2-acetamido-2-deoxy-6-O-sulfonate-α-D-glucopyranoside)-(1→4)-O-(2-O-sulfonato-α-L-idopyranosyl-uronate)]-(1→4)-2-deoxy-2-acetamido-6-O-sulfonate-α-D-glucopyranoside penta sodium salt [Compound 84],>300,,
NCCCCCO[C@H]1O[C@H](COS(=O)(=O)[O-])[C@@H](O[C@@H]2O[C@H](C(=O)[O-])[C@@H](O[C@H]3O[C@H](COS(=O)(=O)[O-])[C@@H](O[C@@H]4O[C@H](C(=O)[O-])[C@@H](O)[C@H](O)[C@H]4O)[C@H](O)[C@H]3NS(=O)(=O)[O-])[C@H](O)[C@H]2O)[C@H](O)[C@H]1NS(=O)(=O)[O-].[Na+].[Na+].[Na+].[Na+].[Na+].[Na+] [Compound 77],97,modest activity,
5-Aminopentyl [(β-D-glucopyranosyluronate)-(1→4)-O-(2-acetamido-2-deoxy-6-O-sulfonato- α-D-glucopyranoside)-(1→4)-O-(2-O-sulfonato-α-L-idopyranosyluronate)]-(1→4)-2-deoxy-2-acetamido-6-O-sulfonate-α-D-glucopyranoside penta sodium salt [Compound 85],167,,
NCCCCCO[C@H]1O[C@H](COS(=O)(=O)[O-])[C@@H](O[C@@H]2O[C@@H](C(=O)[O-])[C@@H](O[C@H]3O[C@H](COS(=O)(=O)[O-])[C@@H](O[C@@H]4O[C@@H](C(=O)[O-])[C@@H](O)[C@H](O)[C@H]4O)[C@H](O)[C@H]3NS(=O)(=O)[O-])[C@H](O)[C@H]2O)[C@H](O)[C@H]1NS(=O)(=O)[O-].[Na+].[Na+].[Na+].[Na+].[Na+].[Na+] [Compound 83],4.6,relatively high potency,
CC(=O)N[C@H]1[C@@H](O[C@H]2[C@H](O)[C@@H](O)[C@H](O[C@H]3[C@H](O)[C@@H](NC(C)=O)[C@@H](OCCCCCN)O[C@@H]3COS(=O)(=O)[O-])O[C@H]2C(=O)[O-])O[C@H](COS(=O)(=O)[O-])[C@@H](O[C@@H]2O[C@@H](C(=O)[O-])[C@@H](O)[C@H](O)[C@H]2O)[C@@H]1O.[Na+].[Na+].[Na+].[Na+] [Compound 82],35,modest activity,10
"NCCCCCOC1OC(COS(=O)(=O)O)C(OC2OC(C(=O)O)C(OC3OC(COS(=O)(=O)O)C(OC4OC(C(=O)O)C(OC5OC(COS(=O)(=O)O)C(OC6OC(C(=O)O)C(O)C(O)C6O)C(O)C5NS(=O)(=O)O)C(O)C4O)C(O)C3NS(=O)(=O)O)C(O)C2O)C(O)C1NS(=O)(=O)O [Compound 69, 5-aminopentyl [(β-D-glucopyranosyluronate)-(1→4)-(2-deoxy-2-sulfoamino-6-O-sulfonato-α-D-glucopyranoside)-(1→4)-O-(α-L-idopyranosyluronate)-(1→4)-O-(2-deoxy-2-sulfoamino-6-O-sulfanate-α-D-glucopyranoside)-(1→4)-(β-D-glucopyranosyluronate)]-(1→4)-O-2-deoxy-N-sulfoamino-6-O-sulfonate-α-D-glucopyranoside nonasodium salt]",64,,
NCCCCCO[C@H]1O[C@H](COS(=O)(=O)[O-])[C@@H](O[C@@H]2O[C@@H](C(=O)[O-])[C@@H](O[C@H]3O[C@H](COS(=O)(=O)[O-])[C@@H](O[C@@H]4O[C@H](C(=O)[O-])[C@@H](O)[C@H](O)[C@H]4O)[C@H](O)[C@H]3NS(=O)(=O)[O-])[C@H](O)[C@H]2O)[C@H](O)[C@H]1NS(=O)(=O)[O-].[Na+].[Na+].[Na+].[Na+].[Na+].[Na+] [Compound 79],240,,
CC(=O)N[C@H]1[C@@H](O[C@H]2[C@H](O)[C@@H](O)[C@H](O[C@H]3[C@H](O)[C@@H](NC(C)=O)[C@@H](OCCCCCN)O[C@@H]3COS(=O)(=O)[O-])O[C@H]2C(=O)[O-])O[C@H](COS(=O)(=O)[O-])[C@@H](O[C@@H]2O[C@H](C(=O)[O-])[C@@H](O)[C@H](O)[C@H]2O)[C@@H]1O.[Na+].[Na+].[Na+].[Na+] [Compound 78],>300,,
5-Aminopentyl [(β-D-glucopyranosyluronate)-(1→4)-O-(2-deoxy-2-sulfamino-6-O-sulfonate-α-D-glucopyranoside)-(1→4)-O-(2-O-sulfonate-α-L-idopyranosyluronate)-(1→4)-2-deoxy-2-sulfoamino-6-O-sulfonate-α-D-glucopyranoside heptasodium salt [Compound 86],>300,,
